Measurements as given in US9358276B2, “Methods of diagnosing and treating small intestinal bacterial overgrowth (SIBO) and SIBO-related conditions” (Cedars-Sinai Medical Center, priority 1999, dated 2016).
Several values for one entry are separate records, joined by “and”; a condition that tells them apart may be missing. Equal entries are not always repeated.

Assays:
SIBO [1] = assay: Neomycin treatment of chronic fatigue syndrome subjects with SIBO; format: in vivo, human
Protocol: Thirty of 202 subjects in the database ([…]) had received a diagnosis of chronic fatigue syndrome. Of these 30 subjects, 21 (70%) had SIBO as indicated by LBHT, but four out of the nine without SIBO had recently taken antibiotics. Therefore, the prevalence of SIBO was 21 out of 26 (81%) subjects with a diagnosis of CFS. After treatment with neomycin (500 mg twice daily, 10-day course), nine of the 21 subjects diagnosed with CFS, returned for follow-up LBHT and questionnaire. […] (Table 2).

SIBO [2] = assay: Antibiotic treatment of Crohn's disease subjects with SIBO; format: in vivo, human
Protocol: To correct for selection bias, a pilot study was conducted to determine the incidence of SIBO in subjects who had received a suspected diagnosis of Crohn's disease at Cedars-Sinai Medical Center=s IBD Center within the preceding three months.

SIBO [3] = assay: Case: multiple sclerosis with SIBO, neomycin; format: in vivo, human; conditions: one patient
Excerpt: A suspected diagnosis of multiple sclerosis had been made by a neurologist was based on various neuropathies of the peripheral nervous system, including numbness, tingling, and weakness in the lower extremities, but this subject also had associated bloating, gas, distension and alteration in bowel habits. The subject also complained of a significant fatigue and nausea. The subject underwent LBHT, which detected SIBO. […] They no longer had numbness or tingling in the hands or feet and was functioning quite well.

SIBO [4] = assay: Case: ADHD with SIBO, neomycin; format: in vivo, human; conditions: one patient
Excerpt: A person was brought in by their parent with a suspected diagnosis of attention deficit/hyperactivity disorder (AD type), made by a pediatrician. Concurrently, they also had significant bloating, gas and some alteration in bowel habits. They had initially been referred for diagnosis by their teachers and school counselors, because they had been having difficulty performing in school for the previous two to three years, after having previously been a very good student. Prior to the detection of SIBO, the subject had been treated with multiple pharmacologic agents for depression, including amitryptiline, with no noticeable improvement in their symptoms.
Additionally, they started to get AA≅ averages in school again after being in the AC≅ range.

upper gut transit = assay: Upper gut transit time by lactulose breath hydrogen test after oleate or oleic acid; format: in vivo, human; conditions: five patients with persistent diarrhea
Excerpt: In a preliminary study, five patients with persistent diarrhea for 3 to 22 months, (one each due to vagal denervation, ileal resection for Crohn's disease, and vagotomy and antrectomy, and two due to idiopathic causes) were studied. […] This test relies on the metabolism of certain carbohydrate materials (e.g. lactulose) by the microbial flora within the caecum. By generating gas which can be detected in the expired air, it is possible to make some estimation about the initial arrival of the administered material within the colon.
Each patient received orally in random order, 0, 1.6 or 3.2 g of sodium oleate in 25 mL Ensure (Ross), followed by 100 mL water. Thirty minutes after each dose of oleate, patients received 10 g lactulose orally, followed by 25 mL water. Breath samples were collected in commercially available breath testing bags (Quintron, Menomonee Falls, Wis.) every 10-15 minutes, and the hydrogen content of the samples was measured using a breath analyzer (Microlyzer Model 12, Quintron Instruments, Menomonee Falls, Wis.), calibrated against gas samples of known hydrogen concentration. With a syringe, a 40-mL sample of the expired breath was withdrawn from the collection bag and analyzed immediately for hydrogen concentration (ppm). The hydrogen concentration value from each sample was plotted against time. Upper gut transit time was defined as the time in minutes from ingestion of lactulose (t0) until a rise of H2 of >10 ppm. Data were further analyzed using 1-way repeated measures analysis of variance (ANOVA)(See Table 4).
The effect of an active lipid on transit time was determined in 8 normal human subjects (1 male and 7 females with a mean age of 35±2.6 years [SE]) and 45 patients (20 males and 25 females with a mean age of 49.1±2.5 [SE], age range from 18 to 90 years) with chronic diarrhea (i.e., continuous diarrhea for more than two months) associated with a wide variety of diagnoses and conditions (e.g., Crohn's disease; irritable bowel syndrome; short bowel syndrome; Indiana pouch; AIDS; ulcerative colitis; vagotomy; antrectomy; ileostomy; partial and complete colectomy; colon cancer; diabetes mellitus type 1; pancreatic insufficiency; radiation enteropathy; esophagectomy/gastric pull-up; total and subtotal gastrectomy; gastrojejunostomy), made by referring gastroenterologists. The method was the same as described above, except oleic acid (Penta Manufacturing, Livingston, N.J.) replaced sodium oleate in 50 mL of Ensure emulsion. All subjects refrained from taking antibiotics for at least two weeks before each testing date and during stool measurement periods. Patients were also instructed to refrain from anti-diarrheal drugs, laxatives, somatostatin analogues or anticholinergics for at least 48 hours before each test. In both the normal and patient groups, there was a significant slowing of upper gut transit time in response to oleic acid, as summarized in Table 5 below (p<0.001).

intestinal transit = assay: Intestinal transit in fistulated dogs, Sqrt AUC of cumulative marker recovery; format: in vivo, dog
Protocol: In 4 dogs equipped with duodenal (10 cm from pylorus) and mid-gut (160 cm from pylorus) fistulas, as described hereinbelow (Example 14), intestinal transit was compared across an isolated 150 cm test segment (between fistulas) while 0, 15, 30 or 60 mM oleate was delivered into either the proximal or distal segment of the gut as a solution of mixed micelles in pH 7.0 phosphate buffer at 2 mL/min for 90 minutes. The segment of gut not receiving oleate was perfused with phosphate buffer, pH 7.0, at 2 mL/min. 60 minutes after the start of the perfusion, […] of ^99mTc-DTPA (diethylenetriaminepentaacetic acid) was delivered as a bolus into the test segment. Intestinal transit was then measured by counting the radioactivity of 1 ml samples collected every 5 minutes from the diverted output of the mid-gut fistula.
Intestinal transit was calculated by determining the area under the curve (AUC) of the cumulative percent recovery of the radioactive marker. The square root values of the AUC (Sqrt AUC), where 0=no recovery by 30 minutes and 47.4=theoretical, instantaneous complete recovery by time 0, were compared across region of fat exposure and oleate dose using 2-way repeated measures ANOVA (see Table 6 below).

[5] = Crohn's subjects, pooled over the named antibiotics

## neomycin
SIBO [1]; all nine CFS subjects
  eradication of SIBO (LBHT): at least partially eradication of SIBO
SIBO [1]; nine CFS patients
  VAS score Fatigue, After Antibiotic: 3.5 ± 1.4
SIBO [1]; nine CFS patients, neomycin 500 mg twice daily, 10-day course
  VAS score Bloating, After Antibiotic: 2.3 ± 1.7
SIBO [2]; [5]
  improvement in symptoms, breath test negative after antibiotic: 69±27%
  improvement in symptoms, subjects remaining positive on breath test after antibiotic: 20±0%
SIBO [2]; nine Crohn's patients
  eradication of SIBO (LBHT): at least partially eradication of SIBO
SIBO [2]; nine Crohn's patients (n=8 reporting), 10-day course of 500 mg twice/daily
  overall improvement in symptoms by VAS: 57±32%
SIBO [2]; pilot study, both subjects
  eradication of SIBO (post-treatment LBHT): completely at least partially eradicated
SIBO [2]; pilot study, two subjects, respectively, 10-day course
  overall improvement in symptoms: 60% and 80%
SIBO [3]
  time to relapse of symptoms after initial response: 6-8 weeks
SIBO [3]; first treatment
  nausea, fatigue, bloating, gas distension and alteration in bowel habits: complete resolution
  neuropathies: dramatic improvement and resolution
SIBO [3]; re-treatment 500 mg twice daily for 10 days
  symptoms upon re-treatment: complete resolution of their symptoms
SIBO [3]; 500 mg twice daily for 10 days
  eradication of bacterial overgrowth: at least partially eradicated
SIBO [4]
  concentration: able to concentrate better
  time to relapse of attention problem and bacterial overgrowth: Approximately two
SIBO [4]; repeat 500 mg twice daily for 10 days
  response to repeat treatment: improved concentration and resolution of bowel symptoms
SIBO [4]; 500 mg twice daily for 10 days
  bowel symptoms: resolution of their bowel symptoms

## CCCCCCCC/C=C\CCCCCCCC(=O)[O-].[Na+] [oleate, sodium oleate]
Upper gut transit; 1.6 g sodium oleate in 25 mL Ensure
  Transit time (mean ± SE): 116 ± 11.1 min
Upper gut transit; 3.2 g sodium oleate in 25 mL Ensure
  Transit time (mean ± SE): 140 ± 11.5 min
Intestinal transit; Distal 1/2 of gut, 15 mM
  Sqrt AUC of cumulative percent marker recovery (mean ± SE): 25.6 ± 1.4
Intestinal transit; Distal 1/2 of gut, 30 mM
  Sqrt AUC of cumulative percent marker recovery (mean ± SE): 18.9 ± 1.5
Intestinal transit; Distal 1/2 of gut, 60 mM
  Sqrt AUC of cumulative percent marker recovery (mean ± SE): 7.0 ± 3.8
Intestinal transit; Proximal 1/2 of gut, 15 mM, buffer control 41.4 ± 4.6
  Sqrt AUC of cumulative percent marker recovery (mean ± SE): 41.6 ± 1.4
Intestinal transit; Proximal 1/2 of gut, 30 mM
  Sqrt AUC of cumulative percent marker recovery (mean ± SE): 40.6 ± 10.2
Intestinal transit; Proximal 1/2 of gut, 60 mM
  Sqrt AUC of cumulative percent marker recovery (mean ± SE): 34.4 ± 3.0
